# Values of other authors in paper PMC12371493 (ACS Bio & Med Chem Au, 2025).
# Test system: MC38-hPD-L1 tumor
# Conditions: dosed SubQ; ref not given
smiles,measurement,value
CO[C@H]1[C@H]2OP(=O)(O)OC[C@@]34C[C@@H]3[C@@H](n3cnc5c(N)ncnc53)[C@H](O)[C@@H]4O[P@](=O)(S)OC[C@H]1O[C@H]2n1cnc2c(=O)[nH]c(N)nc21 [ALG-031048],reduction of MC38-hPD-L1 tumor,"could reduce MC38-hPD-L1tumor, albeit modestly"
